Data: PubChem BioAssay (NCI)
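1) Cells in 96-well plates. 2) Compound, 48 h, 5 concentrations. 3) Linear interpolation between surrounding doses. 4) Unreached endpoint = highest concentration. At the GI50, growth is halved. The concentration for full growth arrest is given as TGI.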

Tests used:
Experiment in all cases: NCI anticancer screen, dose series, 48 h
HCC-2998 colon = tested on: HCC-2998 colon
SNB-19 CNS = tested on: SNB-19 CNS
ACHN renal = tested on: ACHN renal
LOX IMVI melanoma = tested on: LOX IMVI melanoma
CAKI-1 renal = tested on: CAKI-1 renal
NCI-H522 lung = tested on: NCI-H522 lung
SF-295 CNS = tested on: SF-295 CNS
HS 578T breast = tested on: HS 578T breast
RPMI-8226 leukemia = tested on: RPMI-8226 leukemia
CCRF-CEM leukemia = tested on: CCRF-CEM leukemia
SK-MEL-2 melanoma = tested on: SK-MEL-2 melanoma
UO-31 renal = tested on: UO-31 renal
NCI/ADR-RES ovarian = tested on: NCI/ADR-RES ovarian
MCF7 breast = tested on: MCF7 breast
COLO 205 colon = tested on: COLO 205 colon
SW-620 colon = tested on: SW-620 colon
A498 renal = tested on: A498 renal
A549 NSCLC = tested on: A549 NSCLC
MDA-MB-231 breast = tested on: MDA-MB-231 breast
SR leukemia = tested on: SR leukemia
HCT-116 colon = tested on: HCT-116 colon
OVCAR-4 ovarian = tested on: OVCAR-4 ovarian
KM12 colon = tested on: KM12 colon
RXF 393 renal = tested on: RXF 393 renal
SF-268 CNS = tested on: SF-268 CNS
UACC-257 melanoma = tested on: UACC-257 melanoma
MDA-MB-435 = tested on: MDA-MB-435
MALME-3M melanoma = tested on: MALME-3M melanoma
NCI-H23 lung = tested on: NCI-H23 lung
SN12C renal = tested on: SN12C renal
NCI-H226 lung = tested on: NCI-H226 lung
786-0 renal = tested on: 786-0 renal
OVCAR-3 ovarian = tested on: OVCAR-3 ovarian
SK-MEL-5 melanoma = tested on: SK-MEL-5 melanoma
IGROV1 ovarian = tested on: IGROV1 ovarian
OVCAR-5 ovarian = tested on: OVCAR-5 ovarian
SNB-75 CNS = tested on: SNB-75 CNS
SK-MEL-28 melanoma = tested on: SK-MEL-28 melanoma
MOLT-4 leukemia = tested on: MOLT-4 leukemia
SK-OV-3 ovarian = tested on: SK-OV-3 ovarian
UACC-62 melanoma = tested on: UACC-62 melanoma
HCT-15 colon = tested on: HCT-15 colon
SF-539 CNS = tested on: SF-539 CNS
U251 CNS = tested on: U251 CNS
BT-549 breast = tested on: BT-549 breast
HL-60(TB) leukemia = tested on: HL-60(TB) leukemia
PC-3 prostate = tested on: PC-3 prostate
DU-145 prostate = tested on: DU-145 prostate
HOP-62 NSCLC = tested on: HOP-62 NSCLC
HOP-92 NSCLC = tested on: HOP-92 NSCLC
HT29 colon = tested on: HT29 colon
OVCAR-8 ovarian = tested on: OVCAR-8 ovarian
TK-10 renal = tested on: TK-10 renal
M14 melanoma = tested on: M14 melanoma
EKVX NSCLC = tested on: EKVX NSCLC
T-47D breast = tested on: T-47D breast
NCI-H460 lung = tested on: NCI-H460 lung

SMILES: [N-]=[N+]=NCCCn1c2c(c3ccccc3c1=O)C(=O)c1cc(Br)ccc1-2
- GI50 (HCC-2998 colon): > 100 µM
- TGI (HCC-2998 colon): > 100 µM
- GI50 (SNB-19 CNS): > 100 µM
- TGI (SNB-19 CNS): > 100 µM
- GI50 (ACHN renal): > 100 µM
- TGI (ACHN renal): > 100 µM
- GI50 (LOX IMVI melanoma): > 100 µM
- TGI (LOX IMVI melanoma): > 100 µM
- GI50 (CAKI-1 renal): > 100 µM
- TGI (CAKI-1 renal): > 100 µM
- GI50 (NCI-H522 lung): > 100 µM
- TGI (NCI-H522 lung): > 100 µM
- GI50 (SF-295 CNS): > 100 µM
- TGI (SF-295 CNS): > 100 µM
- GI50 (HS 578T breast): > 100 µM
- TGI (HS 578T breast): > 100 µM
- GI50 (RPMI-8226 leukemia): > 100 µM
- TGI (RPMI-8226 leukemia): > 100 µM
- GI50 (CCRF-CEM leukemia): 50.8 µM
- TGI (CCRF-CEM leukemia): > 100 µM
- GI50 (SK-MEL-2 melanoma): > 100 µM
- TGI (SK-MEL-2 melanoma): > 100 µM
- GI50 (UO-31 renal): > 100 µM
- TGI (UO-31 renal): > 100 µM
- GI50 (NCI/ADR-RES ovarian): > 100 µM
- TGI (NCI/ADR-RES ovarian): > 100 µM
- GI50 (MCF7 breast): 39.8 µM
- TGI (MCF7 breast): > 100 µM
- GI50 (COLO 205 colon): > 100 µM
- TGI (COLO 205 colon): > 100 µM
- GI50 (SW-620 colon): > 100 µM
- TGI (SW-620 colon): > 100 µM
- GI50 (A498 renal): > 100 µM
- TGI (A498 renal): > 100 µM
- GI50 (A549 NSCLC): > 100 µM
- TGI (A549 NSCLC): > 100 µM
- GI50 (MDA-MB-231 breast): > 100 µM
- TGI (MDA-MB-231 breast): > 100 µM
- GI50 (SR leukemia): 9.82 µM
- TGI (SR leukemia): 51.7 µM
- GI50 (HCT-116 colon): > 100 µM
- TGI (HCT-116 colon): > 100 µM
- GI50 (OVCAR-4 ovarian): > 100 µM
- TGI (OVCAR-4 ovarian): > 100 µM
- GI50 (KM12 colon): > 100 µM
- TGI (KM12 colon): > 100 µM
- GI50 (RXF 393 renal): > 100 µM
- TGI (RXF 393 renal): > 100 µM
- GI50 (SF-268 CNS): > 100 µM
- TGI (SF-268 CNS): > 100 µM
- GI50 (UACC-257 melanoma): > 100 µM
- TGI (UACC-257 melanoma): > 100 µM
- GI50 (MDA-MB-435): > 100 µM
- TGI (MDA-MB-435): > 100 µM
- GI50 (MALME-3M melanoma): > 100 µM
- TGI (MALME-3M melanoma): > 100 µM
- GI50 (NCI-H23 lung): > 100 µM
- TGI (NCI-H23 lung): > 100 µM
- GI50 (SN12C renal): > 100 µM
- TGI (SN12C renal): > 100 µM
- GI50 (NCI-H226 lung): > 100 µM
- TGI (NCI-H226 lung): > 100 µM
- GI50 (786-0 renal): > 100 µM
- TGI (786-0 renal): > 100 µM
- GI50 (OVCAR-3 ovarian): > 100 µM
- TGI (OVCAR-3 ovarian): > 100 µM
- GI50 (SK-MEL-5 melanoma): > 100 µM
- TGI (SK-MEL-5 melanoma): > 100 µM
- GI50 (IGROV1 ovarian): > 100 µM
- TGI (IGROV1 ovarian): > 100 µM
- GI50 (OVCAR-5 ovarian): > 100 µM
- TGI (OVCAR-5 ovarian): > 100 µM
- GI50 (SNB-75 CNS): 45.1 µM
- TGI (SNB-75 CNS): > 100 µM
- GI50 (SK-MEL-28 melanoma): > 100 µM
- TGI (SK-MEL-28 melanoma): > 100 µM
- GI50 (MOLT-4 leukemia): 28.9 µM
- TGI (MOLT-4 leukemia): > 100 µM
- GI50 (SK-OV-3 ovarian): > 100 µM
- TGI (SK-OV-3 ovarian): > 100 µM
- GI50 (UACC-62 melanoma): > 100 µM
- TGI (UACC-62 melanoma): > 100 µM
- GI50 (HCT-15 colon): > 100 µM
- TGI (HCT-15 colon): > 100 µM
- GI50 (SF-539 CNS): > 100 µM
- TGI (SF-539 CNS): > 100 µM
- GI50 (U251 CNS): > 100 µM
- TGI (U251 CNS): > 100 µM
- GI50 (BT-549 breast): > 100 µM
- TGI (BT-549 breast): > 100 µM
- GI50 (HL-60(TB) leukemia): > 100 µM
- TGI (HL-60(TB) leukemia): > 100 µM
- GI50 (PC-3 prostate): > 100 µM
- TGI (PC-3 prostate): > 100 µM
- GI50 (DU-145 prostate): > 100 µM
- TGI (DU-145 prostate): > 100 µM
- GI50 (HOP-62 NSCLC): > 100 µM
- TGI (HOP-62 NSCLC): > 100 µM
- GI50 (HOP-92 NSCLC): 9.42 µM
- TGI (HOP-92 NSCLC): 92.4 µM
- GI50 (HT29 colon): > 100 µM
- TGI (HT29 colon): > 100 µM
- GI50 (OVCAR-8 ovarian): > 100 µM
- TGI (OVCAR-8 ovarian): > 100 µM
- GI50 (TK-10 renal): > 100 µM
- TGI (TK-10 renal): > 100 µM
- GI50 (M14 melanoma): > 100 µM
- TGI (M14 melanoma): > 100 µM
- GI50 (EKVX NSCLC): > 100 µM
- TGI (EKVX NSCLC): > 100 µM
- GI50 (T-47D breast): > 100 µM
- TGI (T-47D breast): > 100 µM
- GI50 (NCI-H460 lung): 46.8 µM
- TGI (NCI-H460 lung): > 100 µM
